Experimental data published in patent US7687079B2, “Methods of treating ileus” (priority 2002, dated 2010).
“Also recorded” adds a separate entry of the source.

What was measured:
Assay type in all cases: in vivo, mouse
[1] = tested on: MPO+ cells infiltrating the muscularis; experiment: MPO histochemistry, leukocytes infiltrating intestinal muscularis after IM; conditions: control and IM groups, 24 hr
Procedure: MPO Histochemistry. Muscularis whole-mounts were prepared from the mid-jejunum collected 24 hr post-operatively. Segments of intestine were immersed in KRB in a Sylgard lined glass dish (Midland, Mich.) and pinned without stretching along the mesenteric border. The length and width of the segments were measured with a caliper. The jejunal segment was then opened along the mesenteric border and stretched to 150% of the length and 250% of the width. The mucosa was removed using fine forceps, and the remaining tissue fixed in 100% denatured ethanol for 30 min. […] Tissues were mounted on glass slides using Gel/Mount™ (Biomedia Corp., Foster City, Calif.), cover-slipped and inspected by light microscopy (Nikon Microphot-FXA, Fryer, Huntley, Ill.) at a magnification of 200×. PMN's were counted in five to six adjacent optical fields centered between the mesenteric and antimesenteric borders.

iNOS mRNA = iNOS mRNA in muscularis after IM (real time RT-PCR); conditions: for iNOS expression, fold increase: naive mice
Procedure: Pro- and anti-inflammatory gene expression was determined by real time RT-PCR. The small intestinal muscularis externa was collected at 4 time points (3, 6, 12, and 24 hr) postoperatively and snap frozen in liquid nitrogen. Total RNA extraction was performed using the guanidium-thiocyanate phenol-chloroform extraction method as described in Eskandari et al. (Id.) RNA pellets were resuspended in RNA-secure resuspension solution (Ambion Inc., Austin, Tex.), followed by removal of potential contaminating DNA by treatment with DNase I (DNA-Free Kit, Ambion Inc., Austin, Tex.). Equal aliquots (5 μg) of total RNA from each sample were quantified by spectrophotometry (wavelength […]). Peak mRNA expression was quantified in duplicate by SYBR Green two-step, real-time RT-PCR. β-actin was used as the endogenous reference. Aliquoted RNA (40 ng) was subjected to first-strand complementary DNA (cDNA) synthesis using random hexamers (PE applied Biosystems, Foster City, Calif.) and Super Script II (Life Technologies, Rockville, Md.). Primers were taken from the literature or designed according to published sequences (Table 3). PCR reaction mixture was prepared using SYBR Green PCR Core Reagents (PE Applied Biosystems). Each sample was estimated in duplicate using the conditions recommended by the manufacturer. Real-time PCR data were plotted as the ΔRn fluorescence signal versus the cycle number. An arbitrary threshold was set to the midlinear portion of the log ΔRn cycle plot. The threshold cycle (CT) is defined as the cycle number at which the ΔRn, crosses this threshold. Quantification of mRNA expression was normalized to β-actin and calculated relative to control using the comparative CT method.
To exclude PCR amplification of contaminating genomic DNA, RT-negative controls (samples containing RNA which was not reverse transcribed) were included in each PCR reaction. Melting curve analyses were performed for each reaction to ensure amplification of specific product. […] PCR amplification efficiency of each target cDNA was measured by determining the colinearity of serial dilutions. […]

PGE2 = PGE2 release from muscularis extracts (marker of COX-2 activity); conditions: 24 hr
Procedure: Protein and Nitric Oxide Determinations. The small bowel of control and mice subjected to intestinal manipulation was removed under sterile conditions, 4 or 24 hours post-operatively, leaving the colon in situ. The small intestine was transferred to a beaker containing chilled Hanks balanced salt solution (Sigma, St. Louis, Mo.) with 200 U/ml penicillin G and 200 μg/ml streptomycin (HBSS), the lumen flushed, and the tissue transferred to a second beaker of HBSS. The muscularis was harvested as described above for real time RT-PCR. Tissues were maintained under sterile conditions at 3 to 5° C. throughout the harvesting procedure. Isolated muscularis was blotted onto sterile gauze, and the wet weight determined to obtain aliquots of 40 to 60 mg. […]
After the incubation period, the muscle tissue was pelleted, and aliquots of culture medium were frozen in liquid nitrogen and stored at −80° C. The levels of IL-6, IL-1β, PGE2, and IL-10 proteins secreted into the culture medium were determined using commercially available ELISA kits (R&D Systems, Minneapolis, Minn.) according to the manufacturer's instructions. […] Nitrate/nitrate levels were measured 24 hrs postoperatively using commercially available test kit (Oxford Biomedical Research, Oxford, Mich.) and quantified according to the manufacturer's directions. […]

[C-]#[O+] [CO, carbon monoxide]
magnitude of the leukocyte infiltrate (MPO+ cells) [1]: no effect
iNOS expression (iNOS mRNA; naive mice exposed to CO): no effect
iNOS expression, fold increase (iNOS mRNA; CO 3 hr): 1.04±0.19 fold
iNOS expression, fold increase (iNOS mRNA; CO 6 hr): 1.26±0.19 fold
IM-induced PGE2 release (PGE2; IM + CO): no effect
PGE2 release (PGE2; control muscularis, inhalation of CO alone): significant increases; also recorded: significantly increased
